How the values were obtained:
Leishmania infantum [1] = assay: Anti-leishmanial activity against promastigote stage of Leishmania infantum MHOM/MA/67/ITMAP-263 assessed as inhibition of parasite growth incubated for 72 hrs by resazurin-dye based assay; type: functional, organism-based; settings: MHOM/MA/67/ITMAP-263, 72 h
[2] = Selectivity index, ratio of CC50 for cytotoxicity against human THP-1 cells to IC50 for anti-leishmanial activity against promastigote stage of Leishmania infantum MHOM/MA/67/ITMAP-263; type: toxicity, cell-based; settings: read-out: Ratio CC50/IC50
[3] = Cytotoxicity against human THP-1 cells assessed as reduction in cell viability incubated for 72 hrs by MTT assay; type: toxicity, cell-based
Leishmania infantum [4] = assay: Anti-leishmanial activity against promastigote stage of Leishmania infantum MHOM/MA/67/ITMAP-263 assessed as inhibition of parasite growth at 10 uM incubated for 72 hrs by resazurin-dye based assay; type: functional
[5] = Cytotoxicity against human HEK293 cells assessed as reduction in cell viability at 10 uM incubated for 24 hrs by Cell-Titer Glo luminescence assay; type: toxicity, cell-based; settings: read-out: INH
Leishmania infantum [6] = assay: Anti-leishmanial activity against luciferase expressing intracellular amastigote stage of Leishmania infantum MHOM/MA/67/ITMAP-263 infected in human THP-1 cells assessed as inhibition of parasite growth at 10 uM incubated for 72 hrs by Steady-Glo luciferase assay; type: functional; settings: MHOM/MA/67/ITMAP-263, THP-1
Trypanosoma brucei = assay: Anti-trypanosomal activity against trypomastigote blood stage of Trypanosoma brucei Lister 427 assessed as inhibition of parasite growth incubated for 72 hrs by resazurin-dye based assay; type: functional, organism-based; settings: Lister 427, 72 h
hERG (KCNH2) = hERG (KCNH2) (Homo sapiens, UniProt Q12809); assay: Displacement of tracer from hERG extracted from membrane at 10 uM incubated for 2 hrs by fluorescence polarization assay; type: toxicity, cell membranes; settings: hERG membrane preparation, probe tracer (not named)
Sequence of hERG (KCNH2) (Q12809 whole entry): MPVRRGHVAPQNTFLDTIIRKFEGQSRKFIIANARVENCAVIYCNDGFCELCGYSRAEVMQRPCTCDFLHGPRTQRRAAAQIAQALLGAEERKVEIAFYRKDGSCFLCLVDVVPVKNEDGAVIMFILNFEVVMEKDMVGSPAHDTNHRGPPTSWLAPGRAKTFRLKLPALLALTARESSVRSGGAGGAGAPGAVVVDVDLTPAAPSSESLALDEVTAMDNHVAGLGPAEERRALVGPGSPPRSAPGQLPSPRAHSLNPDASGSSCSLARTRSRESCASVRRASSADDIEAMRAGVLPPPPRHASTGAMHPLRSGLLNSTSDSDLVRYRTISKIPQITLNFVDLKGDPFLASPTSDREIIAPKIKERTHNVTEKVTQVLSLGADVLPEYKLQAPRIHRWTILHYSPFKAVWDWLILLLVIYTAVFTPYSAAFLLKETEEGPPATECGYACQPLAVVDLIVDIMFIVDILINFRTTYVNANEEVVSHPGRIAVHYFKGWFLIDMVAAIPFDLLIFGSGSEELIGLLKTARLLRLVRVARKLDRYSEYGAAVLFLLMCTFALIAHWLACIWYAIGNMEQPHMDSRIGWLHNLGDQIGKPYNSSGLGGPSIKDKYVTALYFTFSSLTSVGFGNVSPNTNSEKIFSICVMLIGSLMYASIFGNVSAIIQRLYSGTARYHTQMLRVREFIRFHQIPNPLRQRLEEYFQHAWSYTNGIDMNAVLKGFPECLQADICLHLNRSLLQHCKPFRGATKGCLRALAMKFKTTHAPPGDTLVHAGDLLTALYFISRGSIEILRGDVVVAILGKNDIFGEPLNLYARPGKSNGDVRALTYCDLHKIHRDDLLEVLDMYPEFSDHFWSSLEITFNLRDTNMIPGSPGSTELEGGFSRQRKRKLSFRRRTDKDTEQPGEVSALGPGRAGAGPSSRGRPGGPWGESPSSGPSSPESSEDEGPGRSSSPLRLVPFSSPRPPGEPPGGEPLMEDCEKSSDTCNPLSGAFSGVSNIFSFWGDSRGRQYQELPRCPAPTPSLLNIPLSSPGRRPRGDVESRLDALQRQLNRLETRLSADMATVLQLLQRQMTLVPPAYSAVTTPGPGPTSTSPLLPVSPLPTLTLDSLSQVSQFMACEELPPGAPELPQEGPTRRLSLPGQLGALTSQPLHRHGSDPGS

CYP3A4 = CYP3A4 (Homo sapiens, UniProt P08684); assay: Inhibition of human CYP3A4 expressed in insect cell microsomes at 10 uM preincubated for 20 mins followed by NADP+ and substrate addition and measured after 10 mins by fluorescence based analysis; type: ADME, Microsome; settings: recombinant human CYP3A4 expressed in insect cell microsomes, time 30 min
Sequence of CYP3A4 (P08684 whole entry): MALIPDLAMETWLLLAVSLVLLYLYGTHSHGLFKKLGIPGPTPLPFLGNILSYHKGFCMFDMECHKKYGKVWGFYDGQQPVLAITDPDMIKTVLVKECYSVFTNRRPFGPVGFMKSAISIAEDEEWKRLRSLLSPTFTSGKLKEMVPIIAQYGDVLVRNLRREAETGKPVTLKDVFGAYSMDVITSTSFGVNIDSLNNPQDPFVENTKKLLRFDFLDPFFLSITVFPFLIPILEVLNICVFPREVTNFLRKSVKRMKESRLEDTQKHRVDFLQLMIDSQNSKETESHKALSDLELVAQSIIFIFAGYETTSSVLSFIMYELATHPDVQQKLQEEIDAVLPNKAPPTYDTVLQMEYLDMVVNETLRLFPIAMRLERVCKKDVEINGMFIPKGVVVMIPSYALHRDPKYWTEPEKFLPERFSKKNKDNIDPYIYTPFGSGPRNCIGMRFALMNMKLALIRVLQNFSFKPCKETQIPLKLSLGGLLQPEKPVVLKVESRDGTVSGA

[7] = Cytotoxicity against human A549 cells assessed as reduction in cell viability at 10 uM incubated for 24 hrs by Cell-Titer Glo luminescence assay; type: toxicity, cell-based; settings: read-out: INH
[8] = Selectivity index, ratio of CC50 for cytotoxicity against human THP-1 cells to IC50 for anti-trypanosomal activity against trypomastigote blood stage of Trypanosoma brucei Lister 427; type: toxicity, cell-based; settings: read-out: Ratio CC50/IC50

In the case of `COc1cccc(Nc2ncnc3c(N/N=C/c4cc(O)c(O)c(O)c4)ncnc23)c1`, the IC50 (Leishmania infantum [1]) is reported as 450 nM, the selectivity ratio [2] is reported as > 221 and the CC50 at 72 h [3] is reported as > 100000 nM. For the same molecule, the inhibition at 10 µM (Leishmania infantum [4]) was 95%, the cytotoxicity at 24 h, 10 µM [5] was 8% and the inhibition at 10 µM (Leishmania infantum [6]) was 4%. It also gave an IC50 (Trypanosoma brucei) of 2710 nM, an inhibition at 2 h, 10 µM (hERG (KCNH2)) of 34% and an inhibition at 10 min, 10 µM (CYP3A4) of 0%. The cytotoxicity at 24 h, 10 µM [7] was -6% and the selectivity ratio [8] was > 37.

With `COc1cc(/C=N/Nc2ncnc3c(Nc4ccc(Cl)c(C(F)(F)F)c4)ncnc23)cc(OC)c1O` the CC50 at 72 h [3] was > 10000 nM, the inhibition at 10 µM (Leishmania infantum [4]) was 9% and the cytotoxicity at 24 h, 10 µM [5] was -1%. For the same molecule, the IC50 (Trypanosoma brucei) was 5630 nM, the inhibition at 2 h, 10 µM (hERG (KCNH2)) was 3% and the inhibition at 10 min, 10 µM (CYP3A4) was 19%. The cytotoxicity at 24 h, 10 µM [7] was -2% and the selectivity ratio [8] was > 2.

For `COc1cc(/C=N/Nc2ncnc3c(Nc4ccc(OC(F)(F)F)cc4)ncnc23)ccc1O`, the IC50 (Leishmania infantum [1]) was 8750 nM, the selectivity ratio [2] was 1 and the CC50 at 72 h [3] was > 10000 nM. The inhibition at 10 µM (Leishmania infantum [4]) was 50%, the cytotoxicity at 24 h, 10 µM [5] was 19% and the inhibition at 10 µM (Leishmania infantum [6]) was < 0%. The IC50 (Trypanosoma brucei) was 180 nM, the inhibition at 2 h, 10 µM (hERG (KCNH2)) was 64% and the inhibition at 10 min, 10 µM (CYP3A4) was 0%. For the same molecule, the cytotoxicity at 24 h, 10 µM [7] was 38% and the selectivity ratio [8] was > 54.

With `COc1cc(/C=N/Nc2ncnc3c(Nc4ccc(Cl)c(C(F)(F)F)c4)ncnc23)cc(OC)c1OC` the CC50 at 72 h [3] was > 10000 nM, the inhibition at 10 µM (Leishmania infantum [4]) was 22% and the cytotoxicity at 24 h, 10 µM [5] was -2%. The IC50 (Trypanosoma brucei) was 1760 nM, the inhibition at 2 h, 10 µM (hERG (KCNH2)) was 24% and the inhibition at 10 min, 10 µM (CYP3A4) was 20%. The cytotoxicity at 24 h, 10 µM [7] was -7% and the selectivity ratio [8] was > 6.

For `Oc1ccc(/C=N/Nc2ncnc3c(Nc4ccc(F)c(Cl)c4)ncnc23)cc1O`, the CC50 at 72 h [3] was > 50000 nM, the inhibition at 10 µM (Leishmania infantum [4]) was 13% and the cytotoxicity at 24 h, 10 µM [5] was -6%. The IC50 (Trypanosoma brucei) was 590 nM, the inhibition at 2 h, 10 µM (hERG (KCNH2)) was 7% and the inhibition at 10 min, 10 µM (CYP3A4) was 25%. The cytotoxicity at 24 h, 10 µM [7] was -6% and the selectivity ratio [8] was > 85.

For `Oc1cc(/C=N/Nc2ncnc3c(Nc4ccc(Cl)c(C(F)(F)F)c4)ncnc23)cc(O)c1O`, the CC50 at 72 h [3] was > 10000 nM, the inhibition at 10 µM (Leishmania infantum [4]) was < 0% and the cytotoxicity at 24 h, 10 µM [5] was -2%. The IC50 (Trypanosoma brucei) was 2760 nM, the inhibition at 2 h, 10 µM (hERG (KCNH2)) was 49% and the inhibition at 10 min, 10 µM (CYP3A4) was 11%. For the same molecule, the cytotoxicity at 24 h, 10 µM [7] was -4% and the selectivity ratio [8] was > 4.

For `COc1cccc(Nc2ncnc3c(NN)ncnc23)c1`, the IC50 (Leishmania infantum [1]) was 280 nM, the selectivity ratio [2] was 178 and the CC50 at 72 h [3] was > 50000 nM. The inhibition at 10 µM (Leishmania infantum [4]) was 99%, the cytotoxicity at 24 h, 10 µM [5] was 12% and the inhibition at 10 µM (Leishmania infantum [6]) was < 0%. For the same molecule, the IC50 (Trypanosoma brucei) was 110 nM, the inhibition at 2 h, 10 µM (hERG (KCNH2)) was 14% and the inhibition at 10 min, 10 µM (CYP3A4) was 65%. The cytotoxicity at 24 h, 10 µM [7] was 16% and the selectivity ratio [8] was > 438.

For `Oc1ccc(/C=N/Nc2ncnc3c(Nc4ccc(Cl)c(C(F)(F)F)c4)ncnc23)cc1O`, the CC50 at 72 h [3] was > 10000 nM, the inhibition at 10 µM (Leishmania infantum [4]) was 5% and the cytotoxicity at 24 h, 10 µM [5] was 3%. For the same molecule, the IC50 (Trypanosoma brucei) was 430 nM, the inhibition at 2 h, 10 µM (hERG (KCNH2)) was 29% and the inhibition at 10 min, 10 µM (CYP3A4) was 0%. The cytotoxicity at 24 h, 10 µM [7] was 15% and the selectivity ratio [8] was > 23.

With `COc1ccc(/C=N/Nc2ncnc3c(Nc4ccc(Cl)c(C(F)(F)F)c4)ncnc23)cc1O` the CC50 at 72 h [3] was > 10000 nM, the inhibition at 10 µM (Leishmania infantum [4]) was 12% and the cytotoxicity at 24 h, 10 µM [5] was -3%. For the same molecule, the IC50 (Trypanosoma brucei) was 1440 nM, the inhibition at 2 h, 10 µM (hERG (KCNH2)) was 7% and the inhibition at 10 min, 10 µM (CYP3A4) was 27%. For the same molecule, the cytotoxicity at 24 h, 10 µM [7] was 3% and the selectivity ratio [8] was > 7.

For `Oc1ccc(/C=N/Nc2ncnc3c(Nc4ccc(OC(F)(F)F)cc4)ncnc23)cc1O`, the IC50 (Leishmania infantum [1]) was 14900 nM, the selectivity ratio [2] was 1 and the CC50 at 72 h [3] was > 10000 nM. The inhibition at 10 µM (Leishmania infantum [4]) was 52%, the cytotoxicity at 24 h, 10 µM [5] was 24% and the inhibition at 10 µM (Leishmania infantum [6]) was < 0%. The IC50 (Trypanosoma brucei) was 350 nM, the inhibition at 2 h, 10 µM (hERG (KCNH2)) was 21% and the inhibition at 10 min, 10 µM (CYP3A4) was 0%. The cytotoxicity at 24 h, 10 µM [7] was 18% and the selectivity ratio [8] was > 29.

In the case of `N=C(N)c1ccc(OCCCCCOc2ccc(C(=N)N)cc2)cc1` [PENTAMIDINE], the CC50 at 72 h [3] is reported as < 10000 nM and the IC50 (Trypanosoma brucei) is reported as 3 nM.
